In US12193456B2, “Early life nutrition” (DSM IP ASSETS B.V., priority 2019, dated 2025):

How the values were obtained:
[1] = Calf physiological parameters (bodyweight, average daily gain); type: in vivo, calves (Holstein, Montbéliarde, Holstein×Montbéliarde); details: for effect on host animal performance (in words): early life treatment, birth to week 14
Protocol: (§1) At birth 18 female Holstein (n=12), Montbéliarde (n=4) and Holstein×Montbéliarde (n=2) calves were randomly assigned to either a treatment group (3 mg 3-NOP (active)/kg BW) or control group (placebo supplement i.e. without 3-NOP but with silica and propylene glycol). 3-NOP was supplemented in the form of a 3-NOP powdered formulation (10 wt.-% of 3-NOP admixed with silica and propylene glycol) such that breed distribution and birthweight were balanced across groups. Treatment was administered daily from birth until three weeks post-weaning (week 14) (admixed in a small volume of water and delivered by an oral gavage). Calves were weighed weekly. Milk and concentrate intake prior to weaning was recorded using automated feeders. Animals were group housed in a single pen following weaning. Samples of rumen liquid were collected at week 1, 4, 11, 14, 23 and 60 weeks of life and DNA from these samples of rumen liquid content were extracted and subjected to Illumina MiSeq sequencing. Methane emissions from the calves were measured using the GreenFeed system (C-Lock, Rapid City, SD USA) from weaning at week 11 to week 23 and later from week 56 to 60 of life.

calves = assay: Methane emissions from calves measured using the GreenFeed system after early-life supplementation; type: in vivo, calves (Holstein, Montbéliarde, Holstein×Montbéliarde); details: for methane emissions: n = 10
Description: The methane emissions respectively methane reductions as referred to herein can be measured in individual animals in metabolic chambers by methods known in the art (Grainger et al., 2007 J. Dairy Science; 90: 2755-2766). Moreover, it can also be assessed at barn level by an emerging technology using laser beam (McGinn et al., 2009, Journal of Environ-mental Quality; 38: 1796-1802). Alternatively, methane produced by a ruminant can also be assessed with the GreenFeed system (C-Lock, Rapid City, SD USA), which method is preferred.
as §1

O=[N+]([O-])OCCCO [3-nitrooxypropanol, 3-Nitrooxypropanol]
Bodyweight (BW) of calves ([1]; age 0 weeks, treatment group n = 10): 41.6 kg
Bodyweight (BW) of calves ([1]; age 11 weeks, treatment group n = 10): 102.2 kg
Bodyweight (BW) of calves ([1]; age 14 weeks, treatment group n = 10): 119.5 kg
Bodyweight (BW) of calves ([1]; age 17 weeks, treatment group n = 10): 134.9 kg
Bodyweight (BW) of calves ([1]; age 20 weeks, treatment group n = 10): 151.8 kg
Bodyweight (BW) of calves ([1]; age 23 weeks, treatment group n = 10): 189.5 kg
Bodyweight (BW) of calves ([1]; age 56 to 60 weeks, treatment group n = 10): 339 kg
effect on host animal performance (in words) [1]: no detrimental effects
effect on host animal performance (in words) ([1]; listed as 3-NOP): no adverse effect on performance
Average Daily Gain (ADG) ([1]; from week 0 to 23 weeks of life, treatment group n = 10): 0.79 kg/day
methane emissions of treated animals (in words) (calves; after 60 weeks of age, supplementation from birth until 14 weeks of age): lower methane emissions
methane emissions (calves; age 11 weeks (weaning), during daily supplementation, 3 mg 3-NOP/kg BW oral gavage from birth): 45.0 g/day
methane emissions (calves; age 14 weeks, end of daily supplementation, 3 mg 3-NOP/kg BW oral gavage from birth): 63.4 g/day
methane emissions (calves; age 17 weeks, no supplementation (stopped week 14)): 68.2 g/day
methane emissions (calves; age 20 weeks, no supplementation (stopped week 14)): 88.9 g/day
methane emissions (calves; age 23 weeks, no supplementation (stopped week 14)): 97.13 g/day
methane emissions (calves; age 56 to 60 weeks, no supplementation (stopped week 14)): 193.0 g/day
overall reduction in methane emissions (g CH4/d) (calves; throughout the post-weaning period (week 11 to 23), vs control, P=0.03, treatment ceased three weeks post-weaning): 11.6%
overall reduction in methane emissions (calves; weeks 56 to 60 of life, vs control, P<0.05, no supplementation since week 14): about 19%
